Data as given in ChEMBL document CHEMBL5233246, “CT1-3, a novel magnolol-sulforaphane hybrid suppresses tumorigenesis through inducing mitochondria-mediated apoptosis and inhibiting epithelial mesenchymal transition” (Eur J Med Chem, 2020).
The source made the active and inactive calls. No cut-off for these calls is given here.

Assays:
L02 = experiment: Cytotoxicity against human L02 cells assessed as reduction in cell viability incubated for 8 hrs by CCK-8 assay; format: toxicity, cell-based; details: l02, 8 h
NCI-H460 [1] = experiment: Cytotoxicity against human NCI-H460 cells assessed as reduction in cell viability at 10 uM incubated for 8 hr by CCK-8 assay; format: functional, cell-based
LoVo = experiment: Antiproliferative activity against human LoVo cells assessed as reduction in cell viability incubated for 24 hrs by CCK-8 assay; format: functional, cell-based
[2] = Antiproliferative activity against human […] cells assessed as reduction in cell viability incubated for 24 hrs by CCK-8 assay; format: functional, cell-based
MDA-MB-231 = experiment: Antiproliferative activity against human MDA-MB-231 cells assessed as reduction in cell viability incubated for 24 hrs by CCK-8 assay; format: functional, cell-based; details: MDA-MB-231, 24 h
A549 = experiment: Antiproliferative activity against human A549 cells assessed as reduction in cell viability incubated for 24 hrs by CCK-8 assay; format: functional, cell-based; details: A549, 24 h
HepG2 = experiment: Antiproliferative activity against human HepG2 cells assessed as reduction in cell viability incubated for 24 hrs by CCK-8 assay; format: functional, cell-based; details: HepG2, 24 h
NCI-H1299 = experiment: Antiproliferative activity against human NCI-H1299 cells assessed as reduction in cell viability incubated for 24 hrs by CCK-8 assay; format: functional, cell-based; details: NCI-H1299, 24 h
HONE1 cell line = experiment: Antiproliferative activity against human HONE1 cell line assessed as reduction in cell viability incubated for 24 hrs by CCK-8 assay; format: functional, cell-based; details: HONE1, 24 h
AGS = experiment: Antiproliferative activity against human AGS cells assessed as reduction in cell viability incubated for 24 hrs by CCK-8 assay; format: functional, cell-based
MCF7 = experiment: Antiproliferative activity against human MCF7 cells assessed as reduction in cell viability incubated for 24 hrs by CCK-8 assay; format: functional, cell-based; details: MCF7, 24 h
OVCAR-3 = experiment: Antiproliferative activity against human OVCAR-3 cells assessed as reduction in cell viability incubated for 24 hrs by CCK-8 assay; format: functional, cell-based; details: OVCAR-3, 24 h
U-251 = experiment: Antiproliferative activity against human U-251 cells assessed as reduction in cell viability incubated for 24 hrs by CCK-8 assay; format: functional, cell-based; details: U-251, 24 h
[3] = Antiproliferative activity against human NCI-H1688 cells assessed as reduction in cell viability incubated for 24 hrs by CCK-8 assay; format: functional, cell-based; details: NCI-H1688, 24 h
NCI-H1650 = experiment: Antiproliferative activity against human NCI-H1650 cells assessed as reduction in cell viability incubated for 24 hrs by CCK-8 assay; format: functional, cell-based; details: NCI-H1650, 24 h
SGC-7901 = experiment: Antiproliferative activity against human SGC-7901 cells assessed as reduction in cell viability incubated for 24 hrs by CCK-8 assay; format: functional, cell-based; details: SGC-7901, 24 h
NCI-H460 [4] = experiment: Antiproliferative activity against human NCI-H460 cells assessed as reduction in cell viability incubated for 24 hrs by CCK-8 assay; format: functional, cell-based; details: NCI-H460, 24 h
SW480 = experiment: Antiproliferative activity against human SW480 cells assessed as reduction in cell viability incubated for 24 hrs by CCK-8 assay; format: functional, cell-based; details: SW480, 24 h

Row | SMILES | Activity (L02) | Activity (NCI-H460 [1]) | IC50 (LoVo) [µM] | IC50 [2] [µM] | IC50 (MDA-MB-231) [µM] | IC50 (A549) [µM] | IC50 (HepG2) [µM] | IC50 (NCI-H1299) [µM] | IC50 (HONE1 cell line) [µM] | IC50 (AGS) [µM] | IC50 (MCF7) [µM] | IC50 (OVCAR-3) [µM] | IC50 (U-251) [µM] | IC50 [3] [µM] | IC50 (NCI-H1650) [µM] | IC50 (SGC-7901) [µM] | IC50 (NCI-H460 [4]) [µM] | IC50 (SW480) [µM]
1 | C=CCc1ccc(O)c(-c2cc(CC=C)ccc2OCCS(=O)(=O)CCCCN=C=S)c1 | Non-Toxic | inactive |  |  |  |  |  |  |  |  |  |  |  |  |  |  |  | 
2 | C=CCc1ccc(O)c(-c2cc(CC=C)ccc2O)c1 [MAGNOLOL] | Non-Toxic | inactive | > 45 | > 45 | > 45 | > 45 | > 45 | > 45 | > 45 | > 45 | > 45 | > 45 | > 45 | > 45 | > 45 | > 45 | > 45 | > 45
3 | C[S+]([O-])CCCCN=C=S (stereo not drawn) [SULFORAPHANE] | Non-Toxic | inactive | 18.5 | 25.1 | 22.2 | 20.2 | 21 | 11.6 | 19.3 | 18.4 | 23.1 | 18.4 | 22.5 | 16.8 | 22 | 24.9 | 21.2 | 17.8
